Reference: patent US8492387B2, “2-aminoimidazole beta-secretase inhibitors for the treatment of alzheimer's disease” (Merck, Sharp & Dohme, Corp., priority 2008, dated 2013)
pIC50: −log10 of the molar value.

Target: BACE 1 (beta-secretase enzyme) (Homo sapiens (Human), UniProt P56817)
Assay: ECL Assay (homogeneous end point electrochemiluminescence assay with biotinylated BACE substrate)
Type: biochemical
Conditions: soluble human enzyme, pH 6.5, rt
Method: Enzyme inhibition is determined as follows.
ECL Assay: A homogeneous end point electrochemiluminescence (ECL) assay is performed using a biotinylated BACE substrate. The Km of the substrate is approximated at 50 μM. A typical reaction contains approximately 0.6 nM enzyme, 0.25 μM of the substrate, and buffer (50 mM Pipes, pH 6.5, 0.1 mg/ml BSA, 0.2% CHAPS, 15 mM EDTA and 1 mM deferoxamine) in a total reaction volume of 100 μl. The reaction proceeds for 1-2 hrs and is then stopped by the addition of 150 μL of a quench cocktail solution ([…], pH 8.0, 50 μL INC buffer (2% BSA, 0.2% Tween-20 and 0.05% sodium azide diluted in phosphate buffered saline (PBS) plus 75 μL, PBS), containing streptavadin coated magnetic beads and ruthenylated antibody which specifically recognizes the C-terminal residue of the product. The samples are subjected to M-384 (Igen Inc., Gaithersburg, Md.) analysis. Under these conditions, less than 10% of substrate is processed by BACE 1. The enzyme used in these studies is soluble (transmembrane domain and cytoplasmic extension excluded) human protein produced in a baculovirus expression system. To measure the inhibitory potency for compounds, 10 concentrations of inhibitors are prepared starting from 200 μM with three fold series dilution. Solutions of the inhibitor in DMSO are included in the reaction mixture (final DMSO concentration is 10%). All experiments are conducted at rt using the standard reaction conditions described above. To determine the IC50 of the compound, a four parameter equation is used for curve fitting. The errors in reproducing the dissociation constants are typically less than two-fold.

Chain of BACE 1 (beta-secretase enzyme) (P56817 46-457): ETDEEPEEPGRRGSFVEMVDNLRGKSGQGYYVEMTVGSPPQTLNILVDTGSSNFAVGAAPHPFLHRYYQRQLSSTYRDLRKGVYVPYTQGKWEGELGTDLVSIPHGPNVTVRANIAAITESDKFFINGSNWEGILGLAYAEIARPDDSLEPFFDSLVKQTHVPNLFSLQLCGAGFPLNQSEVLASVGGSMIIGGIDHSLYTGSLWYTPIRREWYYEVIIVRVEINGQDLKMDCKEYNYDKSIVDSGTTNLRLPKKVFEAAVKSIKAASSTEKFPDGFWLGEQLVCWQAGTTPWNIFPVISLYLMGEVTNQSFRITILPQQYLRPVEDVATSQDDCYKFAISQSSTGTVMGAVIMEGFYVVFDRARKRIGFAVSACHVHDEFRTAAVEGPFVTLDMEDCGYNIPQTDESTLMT

Row | pIC50 | SMILES
1 | 5.30 | COc1ccc([C@H](Cc2ccc(C(F)(F)F)cc2)c2nc(N)[nH]c2C(O)c2ccccc2)cc1 (stereo partly drawn) [Example 2, (2-amino-4-{(1S)-1-(4-methoxyphenyl)-2-[4-(trifluoromethyl)phenyl]ethyl}-1H-imidazole-5-yl) (phenyl)methanol]
2 | 4.92 | Cn1cc(C2(Cc3ccccc3)CCc3ccccc32)nc1N (centres unmarked) [Example 3, 4-(1-benzyl-2,3-dihydro-1H-inden-1-yl)-1-methyl-1H-imidazol-2-amine]
3 | 4.96 | COc1ccc(C(Cc2cccc(-c3ccc(C(F)(F)F)cc3Cl)c2)c2cn(C)c(N)n2)cc1 (centres unmarked) [Example 34, 4-[2-[2′-chloro-4′-(trifluoromethyl)biphenyl-3-yl]-1-(4-methoxyphenyl)ethyl]-1-methyl-1H-imidazol-2-amine]
4 | 4.57 | COc1ccc(C2(c3cn(C)c(N)n3)CCCCC2)cc1 [Example 41, 4-[1-(4-methoxyphenyl)cyclohexyl]-1-methyl-1H-imidazol-2-amine]
5 | 4.77 | COc1ccc(C(Cc2ccc(-c3ccc(O)nc3)cc2)c2cn(C)c(N)n2)cc1 (centres unmarked) [Example 55, 5-{4-[2-(2-amino-1-methyl-1H-imidazol-4-yl)-2-(4-methoxyphenyl)ethyl]phenyl}pyridin-2-ol]
6 | 5.49 | COc1ccc2c(c1)CCC2(Cc1cc([N+](=O)[O-])ccc1OC)c1cn(C)c(N)n1 (centres unmarked) [Example 111, 4-[5-methoxy-1-(2-methoxy-5-nitrobenzyl)-2,3-dihydro-1H-inden-1-yl]-1-methyl-1H-imidazol-2-amine]
7 | 7.20 | COc1ccc2c(c1)CCC2(Cc1ccc(C(F)(F)F)nc1)c1cn(Cc2ccccc2)c(N)n1 (centres unmarked) [Example 114, 1-benzyl-4-(5-methoxy-1-{[6-(trifluoromethyl)pyridin-3-yl]methyl}-2,3-dihydro-1H-inden-1-yl)-1H-imidazol-2-amine]
8 | 5.48 | COc1ccc2c(c1)CCC2(Cc1ccc(C(F)(F)F)nc1)c1cn(CCCO)c(N)n1 (centres unmarked) [Example 115, 3-[2-amino-4-(5-methoxy-1-{[6-(trifluoromethyl)pyridin-3-yl]methyl}-2,3-dihydro-1H-inden-1-yl)-1H-imidazol-1-yl]propan-1-ol]
